EC50, half-life and CC50 data for four compounds are collected here from patent US20140205566A1, “CYCLIC NUCLEUOSIDE DERIVATIVES AND USES THEREOF” (NOVARTIS AG, priority 2012, published 2014).

One series concerns dengue virus. As to the kind of experiment: Dengue EC50 determination: PBMC infected with virus/humanized 4G2 antibody complex, plaque reduction assay using BHK cells. The format is cell-based. To be noted: M.O.I of 1, 48 hours, plaque reduction in BHK cells. Here is the method:
Cryopreserved PBMC (Peripheral Blood Mononuclear Cell) cells were purchased from AllCells, LLC in USA. The cells were then thawed according to manufacturer's instructions and re-suspended in RPMI medium supplemented with 1% penicillin/streptomycin solution and 10% Fetal Calf serum. The cells were then counted and viability checked (viability should be at least 80%). After centrifuging and removing the media, the cells were diluted to 1×10^7 cells/mL in RPMI medium supplemented with 1% penicillin/streptomycin. 50 μl of the cells were then dispensed into 96-well tissue culture plate resulting in 5×10^5 cells/well. Next, virus with humanized 4G2 mixture was prepared for infection. Briefly, virus (2×10^7 pfu/ml) was mixed with humanized 4G2 antibody with the final antibody concentration of 0.38 μg/ml and incubated for 30 minutes at 4° C. to assist virus/antibody complex formation. The virus-antibody complex was then added to the PBMC at multiplicity of infection (M.O.I) of 1. The mixture of cells, virus and antibody was then further incubated in the plates at 37° C. for an hour in the humidified incubator for virus attachment and infection to take place. Serial diluted compounds were then added to the final media volume of 200 μl with 2% Fetal Calf Serum (final PBMC concentration would be 2.5×10^6 cells/mL). The plates were then incubated at 37° C., 5% CO2 for another 48 hours. The extent of the infection and compound inhibition was measured by plaque reduction assay using BHK cells [RD-2004-80036]. Briefly, supernatants of BHK cells grown in 24-well tissue culture (seeded at 200,000 cells/well the night before) were removed and subjected to 200 μl of diluted supernatants derived from PBMC infection containing serial diluted compounds. After incubating it for 37° C. for 1 hour in the incubator, the supernatants were removed and BHK cells overlaid with RPMI media containing 0.8% methyl-cellulose, 0.5% DMSO, 0.05% sodium bicarbonate, 25 mM HEPES, 2% fetal bovine serum and 1% penicillin/streptomycin solution. After additional 4 days of incubation at 37° C. incubator, the monolayer of BHK cells were fixed with 4% paraformaldehyde, stained with crystal violet and plaques counted. The dose response (n=2) is calculated by Prism from Graphpad software using a mathematical curve fitting analysis called nonlinear regression with four independent parameters. Briefly, the software generates the best fit curve using the formula F(x)=((A−D)/(1+((x/C)̂B)))+D. In this formula, x represents the concentration of the compound, A is the minimum value, B represents the steepness of the curve (sometimes known as Hill slope), C is the inflection point and D is the maximum value. EC50 was estimated as the concentration of the compound which will inhibit 50% of the plaque formation. A positive control (7-deaza-2′-C-acetylene-adenosine) was used to ensure the quality of the data.

Series [1] is described as follows: Stability in liver microsomes. The format is in vitro ADME. To be noted: human, read-out: liver microsomes t1/2.
The nature of series [2]: Liver S9 stability determination. The format is in vitro ADME. To be noted: pooled liver S9 fraction; human liver S9 fraction, 1 μM compound, 37° C., up to 120 mins; read-out: liver S9 t1/2. The source says: The liver is the main organ of metabolism and contains a high concentration of drug metabolizing enzymes. Metabolic clearance, particularly hepatic, is one of the main determinants affecting systemic drug exposure following both oral and i.v. administration. To assess the ability of the compounds of the invention to reach a systemic circulation, the hepatic S9 fraction was chosen to test for stability of the compounds. Hepatic S9 fraction was obtained following centrifugation of homogenized liver tissue at 9,000 g. The hepatic S9 fraction is composed of both microsomal and cytosolic fractions and contains all the enzymes contained in microsomes plus additional phase I and phase II cytosolic enzymes.
Stock solutions of each tested compound (100 μM) were prepared in methanol by two subsequent 1:10 dilutions from 10 mM DMSO drug solutions, the final assay concentration was 1 μM. Frozen pooled liver S9 fraction was thawed from −20° C. and diluted in phosphate buffer (with and without NADPH) which was pre-warmed at 37° C. for 10 minutes. The reaction was initiated by addition of compound. Manual sample plates were incubated on a Thermo Max Q 2000 shaker placed in a temperature controlled Sartorius Certomat H hood set at 37° C. Sequential samples were removed at designated timepoints (0, 5, 15, 30, 60 and 120 mins) and quenched with 4 volumes of ice cold acetonitrile (containing internal standard, diazepam), centrifuged and supernatants reconstituted in water (acetonitrile:water, 50:50% v/v). Samples were then analyzed by LCMS/MS or LC-UV to assess parent depletion. In vitro half-life (t1/2) is calculated based on the rate of disappearance of compound from the reaction mixture at incubation timepoints up to 2 hours.

Series [3] can be described thus: CCK8 cytotoxicity assay in HepG2 cells. It counts as cell-based. The settings on record: human, CCK-8. As for the experimental part:
HepG2 cells were trypsinized, washed, counted and diluted to 1.6×10^4 cells/ml in DMEM-W/O Glucose, supplemented with 10% Fetal bovine serum (FBS), 1% Penicillin/Streptomycin, 2 mM HEPES, 1 mM Sodium Pyruvate, 10 mM Galactose & 2 mM Glutamine. 25 μl of the media containing 400 cells per well were dispensed in clear 384-well tissue culture plate and incubated at room temperature for 30 minutes. The plate was then transferred and placed at 37° C., 5% CO2 humidified incubator overnight. On the next day, serial-diluted compound plates were prepared and 125 nl of compounds at various concentrations were then dispensed into the tissue culture well (200× dilution). The plates were then transferred to 37° C., 5% CO2 humidified incubator for additional 96 hours. Cytotoxicity was measured by CCK-8 assay. Briefly, CCK-8 was thawed on bench top and diluted 2.5× with the growth media. 35 ul of the pre-diluted CCK-8 was then introduced into each well and the plates were then further incubated in 37° C., 5% CO2 humidified incubator for 3 hours. The absorbance was read by Envision at 450 nm. Dose response curves were calculated as in the previous section. The CC50 is estimated as the concentration of the compound which will inhibit 50% of the signal. A positive control (puromycin) was used to ensure the quality of the data.

Consider `CCOC(=O)[C@H](C)N[P@@]1(=O)OC[C@H]2O[C@@H](n3cnc4c(OCC)nc(N)nc43)[C@](C)(F)[C@@H]2O1` [Example 1, (S)-ethyl 2-(((2R,4aR,6R,7R,7aR)-6-(2-amino-6-ethoxy-9H-purin-9-yl)-7-fluoro-7-methyl-2-oxidotetrahydro-4H-furo[3,2-d][1,3,2]dioxaphosphinin-2-yl)amino)propanoate], for which the half-maximal effective concentration (EC50) in the series with dengue virus is 230 nM. In addition, the half-life in series [1] was found to be 47 min. Also, in series [2], the half-life at 1 μM worked out at 76 min. Moreover, in series [3], the CC50 at 96 h was greater than 50000 nM.
For `CCOc1nc(N)nc2c1ncn2[C@@H]1O[C@@H]2CO[P@](=O)(N[C@@H](C)C(=O)OC)O[C@H]2[C@@]1(C)F` [Example 3, (S)-methyl 2-(((2R,4aR,6R,7R,7aR)-6-(2-amino-6-ethoxy-9H-purin-9-yl)-7-fluoro-7-methyl-2-oxidotetrahydro-4H-furo[3,2-d][1,3,2]dioxaphosphinin-2-yl)amino)propanoate], in that order: 460 nM, 57 min, greater than 120 min and greater than 50000 nM.
In the case of `CCOc1nc(N)nc2c1ncn2[C@@H]1O[C@@H]2CO[P@@](=O)(N[C@H](C)C(=O)OC(C)C)O[C@H]2[C@@]1(C)F` [Example 6, (R)-isopropyl 2-(((2S,4aR,6R,7R,7aR)-6-(2-amino-6-ethoxy-9H-purin-9-yl)-7-fluoro-7-methyl-2-oxidotetrahydro-4H-furo[3,2-d][1,3,2]dioxaphosphinin-2-yl)amino)propanoate], in the series on dengue virus, the response was half-maximal at 370 nM (EC50). Moreover, the half-life at 1 μM in series [2] is greater than 120 min. Besides, the CC50 at 96 h in series [3] was greater than 50000 nM.
`CCOc1nc(N)nc2c1ncn2[C@@H]1O[C@@H]2CO[P@@](=O)(N[C@@H](C)C(=O)OC(C)C)O[C@H]2[C@@]1(C)F` [Example 2, (S)-isopropyl 2-(((2S,4aR,6R,7R,7aR)-6-(2-amino-6-ethoxy-9H-purin-9-yl)-7-fluoro-7-methyl-2-oxidotetrahydro-4H-furo[3,2-d][1,3,2]dioxaphosphinin-2-yl)amino)propanoate] displayed an EC50 in the series on dengue virus of 72 nM. Also, in series [1], the half-life was 32 min. The half-life at 1 μM in series [2] is 36 min. For the same compound, the CC50 at 96 h in series [3] was greater than 50000 nM.
